Assay results as given in US6531610B1 (Abbott Laboratories, priority 1989, dated 2003).
Counter-ions that a name gives are not always drawn. Like-named read-outs stand apart in the source and are kept apart here.

Legend:
MT4 cells = assay: in vitro; format: cell-based; settings: concentration at which 50% of the cells remain viable; MT4 cells; read-out: LC50 (the source's name)
From the text: (§1) The anti-HIV activity of the compounds of the invention can be determined in MT4 cells according to the procedure of Kempf, et. al. (Antimicrob. Agents Chemother. 1991, 35, 2209).

HIV-13B in MT4 cells = assay: Antiviral activity: inhibition of the cytopathic effect of HIV in MT4 cells; format: cell-based, HIV-1
in vitro = format: cell-based; settings: human; concentration at which 50% of the cells remain viable; MT4 cells; read-out: LC50 (the source's name)
From the text: as §1

HIV-1 protease = HIV-1 protease (Human immunodeficiency virus type 1 group M subtype B, UniProt P04585); assay: Fluorogenic assay for screening inhibitors of HIV protease; format: biochemical; settings: Inhibitor Concentration 0.5 nanomolar, fluorogenic substrate, pH 4.5, read-out: Percent Inhibition
Protocol: The inhibitory potency of the compounds of the invention can be determined by the following method.
A compound of the invention is dissolved in DMSO and a small aliquot further diluted with DMSO to 100 times the final concentration desired for testing. The reaction is carried out in a 6×50 mm tube in a total volume of 300 microliters. The final concentrations of the components in the reaction buffer are: 125 mM sodium acetate, 1 M sodium chloride, 5 mM dithiothreitol, 0.5 mg/ml bovine serum albumin, 1.3 μM fluorogenic substrate, 2% (v/v) dimethylsulfoxide, pH 4.5. After addition of inhibitor, the reaction mixture is placed in the fluorometer cell holder and incubated at […] for several minutes. The reaction is initiated by the addition of a small aliquot of cold HIV protease. The fluorescence intensity (excitation 340 nm, emission 490 nm) is recorded as a function of time. The reaction rate is determined for the first six to eight minutes. The observed rate is directly proportional to the moles of substrate cleaved per unit time. The percent inhibition is 100×(1-(rate in presence of inhibitor)/(rate in absence of inhibitor)).
Fluorogenic substrate: Dabcyl-[…]EDANS wherein DABCYL=4-(4-dimethylamino-phenyl)azobenzoic acid and EDANS=5-((2-aminoethyl)amino)-naphthalene-1-sulfonic acid.

[1] = concentration giving 50% inhibition of the cytopathic effect of HIV, HIV-13B in MT4 cells, read-out: IC50

| Compound | CC50 (MT4 cells) [nM] | IC50 (HIV-13B in MT4 cells; [1]) [nM] | other results |
| --- | --- | --- | --- |
| CC(C)c1csc(COC(=O)N[C@H](C(=O)N[C@@H](Cc2ccccc2)C[C@H](O)[C@H](Cc2ccccc2)NC(=O)OCc2cncs2)C(C)C)n1 [Example 21, (2S,3S,5S)-5-(N-(N-((4-Isopropyl-2-thiazolyl)methoxycarbonyl)valinyl)amino)-2-(N-((5-thiazolyl)methoxycarbonyl)amino)-1,6-diphenyl-3-hydroxyhexane] |  |  | melting point: 62 to 64 °C |
| CC(C)c1nc(CN(C)C(=O)N[C@H](C(=O)N[C@@H](Cc2ccccc2)C[C@H](O)[C@H](Cc2ccccc2)NC(=O)OCc2cnco2)C(C)C)co1 [Example 19] | 87000 | 22 to 48 |  |
| CC(C)c1nc(CC(=O)N[C@H](C(=O)N[C@@H](Cc2ccccc2)C[C@H](O)[C@H](Cc2ccccc2)NC(=O)OCc2cncs2)C(C)C)cs1 [Example 50] | > 100000 | 150 to 270 |  |
| CC(C)c1nc(CN(N)C(=O)N[C@H](C(=O)N[C@@H](Cc2ccccc2)C[C@H](O)[C@H](Cc2ccccc2)NC(=O)OCc2cncs2)C(C)C)cs1 [Example 63, (2S,3S,5S)-5-(N-(N-((N-(Amino)-N-((2-isopropyl-4-thiazolyl)methyl)amino)carbonyl)valinyl)amino)-2-(N-((5-thiazolyl)methoxycarbonyl)amino)-1,6-diphenyl-3-hydroxyhexane Hydrochloride] |  |  | CC50 (in vitro): 45000 nM; inhibition at 0.0005 µM (HIV-1 protease): 61%; IC50 (HIV-13B in MT4 cells; Human immunodeficiency virus 1, MT4): 130 to 180 nM |
